Several values for one entry are separate records, joined by “and”; a condition that tells them apart may be missing. Equal values may be shown once.
How the values were obtained:
epididymal mouse sperm [1] = assay: Ex vivo motility (CASA) of epididymal sperm from inhibitor-treated male mice; assay type: in vivo; set-up: hyperactivated motility (%): concentration or dose not given beside the values
Experimental: Sperm movements of 10 fields of at least 200 sperm were examined using computer-assisted sperm analysis (CASA) via Hamilton–Thorne digital image analyzer (IVOS II, Hamilton Thorne Research, Beverly, MA) with the following parameters: 30 frames, frame rate: 60 Hz, cell size: 30–170 μm^2. Ejaculated uterine mouse sperm were recorded without additional dilution. Sperm were considered motile when presenting STR ≥80% and VAP ≥50 μm/s and hyperactivated when presenting VCL ≥270 μm/s, LIN < 50%, and ALH ≥7 μm. Track´s color code: motile (green), progressive (turquoise), hyperactivated (purple), slow (pink), static (red), not counted due to late entry (yellow).

Solubility = assay type: physicochemical; conditions: unsuitable for chronic delivery to mice
mouse sperm = assay: Acrosome reaction assay, mouse sperm, zona pellucidae-evoked; assay type: cell-based
Experimental: Zonae pellucidae were isolated from female mice superovulated by intraperitoneal injection of 10 I.U. […] 3 days before the experiment. 14 h before oocyte isolation, mice were injected with 10 I.U. pregnant mare’s serum gonadotropin. Mice were sacrificed by cervical dislocation and oviducts were dissected. Cumulus-enclosed oocytes were separated from the oviducts and placed into TYH buffer containing 300 μg/ml hyaluronidase. After 15 min, cumulus-free oocytes were transferred into fresh buffer and washed twice. Zonae pellucidae and oocytes were separated by shear forces generated by expulsion from […] pasteur pipettes. Zona pellucidae were counted, transferred into fresh buffer, and heat-solubilized by incubation for 10 min at 65 °C.
Acrosome reaction was induced by incubating mouse sperm with 50 mouse solubilized zonae pellucidae for 15 min at 37 °C. Human sperm were incubated with 10 μM progesterone for 30 min at 37 °C. […] Samples were air-dried on microscope slides and fixed for 30 minutes in 100% ethanol at room temperature (RT). For acrosome staining, mouse and human sperm were incubated for 30 min in the dark with 5 μg/ml PNA-FITC or 5 μg/ml PSA-FITC, respectively, and counterstained with 2 μg/ml DAPI. After curing, slides were analyzed using a Zeiss LSM 880 Laser Scanning Confocal Microscope; images were captured with two photomultiplier and one Gallium Arsenide Phosphide detector using ZEN Imaging software. For each condition, at least 600 cells were analyzed using ImageJ 1.52.

[2] = molecular target: T1, immobilized human sAC protein (Homo sapiens, UniProt Q96PN6); assay: Surface plasmon resonance binding kinetics;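 also: Reference-channel response subtracted from active-channel response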; conditions: Fig. 1f
T1 construct: recombinant purified His-tagged sACt protein (50 μg/ml)
T1 sequence (Q96PN6 1-469 limits assumed): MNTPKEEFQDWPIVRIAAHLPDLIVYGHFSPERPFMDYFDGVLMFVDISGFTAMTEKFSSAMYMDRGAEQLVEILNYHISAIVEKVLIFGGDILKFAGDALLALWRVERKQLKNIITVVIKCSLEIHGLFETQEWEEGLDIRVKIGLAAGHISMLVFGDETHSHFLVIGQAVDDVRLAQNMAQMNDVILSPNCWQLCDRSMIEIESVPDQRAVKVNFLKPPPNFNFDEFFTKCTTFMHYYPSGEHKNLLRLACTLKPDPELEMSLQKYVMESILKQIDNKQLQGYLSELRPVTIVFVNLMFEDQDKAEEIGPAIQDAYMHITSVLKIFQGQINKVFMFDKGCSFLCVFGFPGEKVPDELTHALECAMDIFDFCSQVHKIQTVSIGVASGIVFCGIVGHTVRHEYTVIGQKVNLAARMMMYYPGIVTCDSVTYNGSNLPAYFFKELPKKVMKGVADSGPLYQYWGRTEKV
Experimental: Association and dissociation rate constants of sAC inhibitors were obtained with a Biacore 8K instrument (Cytiva) using a parallel kinetics protocol. Series S Sensor NTA chips (Cytiva) were prepared by applying recombinant purified His-tagged sACt protein (50 μg/ml) in PBS-P+ buffer (1 mM KH2PO4, 150 mM NaCl, 6 mM Na2HPO4, 0.05% (w/v) P20 Surfactant). The His-tagged sAC protein was captured via Ni^2+-His-tag chelation and covalently immobilized by amine coupling with a 1:1 mixture of 1-ethyl-3-(3-dimethylaminopropyl) carbodiimide and N-hydroxysuccinimide (active channels). After coupling, remaining reactive groups on the chip’s surface were blocked with 1 M ethanolamine followed by 350 mM EDTA to wash away any free Ni^2+. Following preparation, TBS-P+ running buffer (50 mM Tris, 150 mM NaCl, and 0.05% P20 Surfactant) supplemented with 1% DMSO was flowed over the surface of the chip until a stable baseline was obtained. For each sAC inhibitor, which were dissolved in DMSO and diluted in running buffer, increasing concentrations were injected into parallel channels for 120 s at a flow rate of 50 µl/min followed by running buffer for 600 s to allow for dissociation. All experiments included reference channels; i.e., inhibitor run over parallel channels without immobilized protein. […] Curves were fitted, and kon, KD, and koff values were determined using the Biacore 8K Insight Evaluation Software Version 2.0 (Cytiva) and a 1:1 binding kinetics model.

hERG = conditions: cited from earlier work
epididymal mouse sperm [3] = assay: Ex vivo cAMP generation in epididymal sperm from inhibitor-treated male mice (oral or i.p.)
Experimental: (§1) For capacitation, sperm were incubated for 90 min in TYH containing 3 mg/ml BSA and 25 mM NaHCO3 in a 37 °C incubator. To control for the consequences of dilution during isolation of epididymal mouse sperm for ex vivo assays, we assessed the ability of bicarbonate to induce a prototypical pattern of tyrosine phosphorylation (pY) which is a widely used molecular hallmark of capacitation[53]. […] For experiments studying sperm from injected mice, ‘swim out’ was performed in 200 μl TYH, which corresponded to a 1:10 dilution from epididymis (20 μg cauda in 200 μl buffer). Capacitation-induced changes were assessed by adding 50 µl of ‘swim out’ sperm to increasing volumes of capacitating TYH buffer.
Intracellular cAMP levels were quantified using the Direct cAMP ELISA kit (Enzo) as above.

epididymal mouse sperm [4] = assay: Tyrosine phosphorylation (pY) Western blot of sperm from injected mice; conditions: 50 mg/kg i.p., 1 hour
Experimental: as §1
Mouse sperm from vehicle- or inhibitor-injected mice were isolated 1 hour post injection from male mice injected (i.p.) with 150 µl of solution containing sAC inhibitor or vehicle. ‘Swim out’ sperm were diluted 1:1 to 1:100 in capacitating TYH media. As control, sperm from vehicle-injected mice were diluted 1:100 in non-capacitating and capacitating TYH buffer. The samples were incubated for 90 min, washed with 1 ml PBS and sedimented by centrifugation at 2000 × g for 3 min. The sedimented sperm were resuspended in 15 μl 2× Laemmli sample buffer, heated for 5 min at 95 °C, supplemented with 8 µl β-mercaptoethanol and heated again for 5 min at 95 °C. For Western blot analysis, proteins were transferred onto PVDF membranes (Thermo Scientific), probed with anti-phosphotyrosine (1:1000, clone 4G10, Merck Millipore) and anti-mouse IgG (1:10,000, Cell Signaling Technology) antibodies, and analyzed using a chemiluminescence detection system. Image lab (Bio-Rad) was used for densitometric analysis of western blots.

In the case of `Nc1nc(Cl)cc(-c2nn(C(F)F)cc2Cc2ccccc2OCCN2CCOC[C@@H]2CO)n1` [TDI-11861], the “earliest time of motility inhibition post i.p.-injection” value (epididymal mouse sperm [1]; 50 mg/kg i.p.) is reported as 15 min, the “recovery of sperm motility” value (epididymal mouse sperm [1]; 50 mg/kg i.p., 24 hours post-injection) is reported as “most sperm from TDI-11861-injected mice had recovered motility” and the “motility of epididymal sperm diluted ex vivo” value (epididymal mouse sperm [1]; 50 mg/kg oral) is reported as “essentially immotile”. The “motility (%)” value (epididymal mouse sperm [1]; Fig. 3b replicates, 50 mg/kg oral gavage, 1 hour, diluted 1:100 in inhibitor-free non-capacitating media, CASA, 50 mg/kg) was 2.8% and 0.5% and 0.3% and 0.7% and 1.7% and 1.9% and 3.3% and 1.6% and 3.6% and 3.8% and 1.1%, the “motility (%), + cAMP” value (epididymal mouse sperm [1]; Fig. 3b replicates, 50 mg/kg oral gavage, 1 hour, in presence of 5 mM db-cAMP/500 μM IBMX, 50 mg/kg) was 10.8% and 22.6% and 32.3% and 13.1% and 19.4% and 14.6% and 14% and 11.2% and the “progressive motility (%)” value (epididymal mouse sperm [1]; Fig. 4b, epididymal sperm) was 0.9% and 1.3% and 2.1% and 0.4% and 1.5% and 0.8% and 0.3%. The “hyperactivated motility (%)” value (epididymal mouse sperm [1]; Fig. 4c, epididymal sperm) was 0.8% and 0.4% and 1.6% and 0.2% and 0.1% and 0.6% and 0.3%, the “motility (%)” value (epididymal mouse sperm [1]; Fig. 5, time 0.25 h) was 0.4% and 0.6% and 0.8% and 0.3% and 0.7% and 1.3% and 1% and the “motility (%)” value (epididymal mouse sperm [1]; Fig. 5, time 0.5 h) was 3.4% and 0.5% and 1.4% and 4.6% and 1.7% and 0.9%. For the same molecule, the “motility (%)” value (epididymal mouse sperm [1]; Fig. 5, time 2 h) was 1.1% and 1.7% and 1.2% and 0.7% and 2.3% and 2.7%, the “motility (%)” value (epididymal mouse sperm [1]; Fig. 5, time 2.5 h) was 0.8% and 6.3% and 0.7% and 1.3% and 0.9% and 0.4% and the “motility (%)” value (epididymal mouse sperm [1]; Fig. 5, time 3 h) was 1.2% and 0.4% and 6.5% and 6.2% and 3.7%. For the same molecule, the “motility (%)” value (epididymal mouse sperm [1]; Fig. 5, time 24 h) was 22.8% and 19.1% and 22% and 33.1% and 20.5% and 20.6%, the “motility (%)” value (epididymal mouse sperm [1]; Fig. 3d, + cAMP, individual replicates) was 17.3% and 12.5% and 13.3% and 33% and 16.6% and 14.6% and the “motility (%)” value (epididymal mouse sperm [1]; Fig. 3d, individual replicates) was 3% and 0.6% and 2% (2×) and 1.9% and 3.8% and 2.2% and 2.3% and 1.4% and 0.9% (2×) and 2.5% and 0.4% and 0.2% and 1.1% and 2.8%. The solubility (Solubility) was “limited solubility”, the “toxicity to sperm (rescue of acrosome response by cAMP/IBMX)” value (mouse sperm) was “not toxic to sperm” and the “Acrosome reacted (%), basal + db-cAMP/IBMX” value (mouse sperm; Fig. 2g replicates, 5 mM db-cAMP/500 μM IBMX, 5 μM TDI-10229 or 10 nM TDI-11861) was 33.6897% and 30.4912% and 38.1667% and 17.5365% and 24% and 40.1452%. The “Acrosome reacted (%), ZP” value (mouse sperm; Fig. 2g replicates, 50 heat-solubilized zona pellucidae, 5 μM TDI-10229 or 10 nM TDI-11861) was 22.9233% and 33% and 26.2439% and 20.6667% and 34.5025% and 32.3333%, the “Acrosome reacted (%), basal” value (mouse sperm; Fig. 2g replicates, 90 min capacitating media, 5 μM TDI-10229 or 10 nM TDI-11861) was 31.9785% and 35% and 27.6378% and 28.974% and 29% and 25% and the “Acrosome reacted (%), ZP + db-cAMP/IBMX” value (mouse sperm; Fig. 2g replicates, zona pellucidae, 5 mM db-cAMP/500 μM IBMX, 5 μM TDI-10229 or 10 nM TDI-11861) was 42.963% and 32.2222% and 37.3475% and 28% and 29.3534% and 43%. For the same molecule, the SPR sensorgram response ([2]; 4 nM, Time 1.8 s) was 0.8425, the SPR sensorgram response ([2]; 4 nM, Time 1.9 s) was 0.8424 and the SPR sensorgram response ([2]; 4 nM, Time 2 s) was 0.8404. The SPR sensorgram response ([2]; 12.3 nM, Time 1.8 s) was 0.7083, the SPR sensorgram response ([2]; 12.3 nM, Time 1.9 s) was 0.7083 and the SPR sensorgram response ([2]; 12.3 nM, Time 2 s) was 0.7083. For the same molecule, the SPR sensorgram response ([2]; 37 nM, Time 1.8 s) was 0.4389, the SPR sensorgram response ([2]; 37 nM, Time 1.9 s) was 0.4389 and the SPR sensorgram response ([2]; 37 nM, Time 2 s) was 0.4389. For the same molecule, the SPR sensorgram response ([2]; 111 nM, Time 1.8 s) was 1.6715, the SPR sensorgram response ([2]; 111 nM, Time 1.9 s) was 1.6715 and the SPR sensorgram response ([2]; 111 nM, Time 2 s) was 1.5453. It also gave an SPR sensorgram response ([2]; 333 nM, Time 1.8 s) of 3.2073, an SPR sensorgram response ([2]; 333 nM, Time 1.9 s) of 3.4899 and an SPR sensorgram response ([2]; 333 nM, Time 2 s) of 3.8103. For the same molecule, the “activity in hERG electrophysiology studies” value (hERG) was “no significant activity”, the “bicarbonate-induced cAMP response, sperm directly isolated” value (epididymal mouse sperm [3]; 50 mg/kg i.p.) was “prevented bicarbonate-induced increase in cAMP” and the “inhibition of bicarbonate-induced cAMP elevation and motility after ex vivo dilution” value (epididymal mouse sperm [3]; 50 mg/kg i.p.) was “persisted following ex vivo dilution”. The “bicarbonate-induced cAMP response, sperm measured directly” value (epididymal mouse sperm [3]; 50 mg/kg oral, 1 hour, cauda sperm) was “no bicarbonate-induced increase in cAMP”, the “normalized cAMP, diluted” value (epididymal mouse sperm [3]; Fig. 3a replicates, 50 mg/kg oral gavage, 100-fold dilution into inhibitor-free media, capacitating relative to non-capacitated, 50 mg/kg) was 1.404 and 1.468 and 0.846 and 0.4392 and 0.6198 and 0.8825 and 1.178 and 0.8649 and 1.043 and the “normalized cAMP, non-diluted” value (epididymal mouse sperm [3]; Fig. 3a replicates, 50 mg/kg oral gavage, capacitating relative to non-capacitated sperm of same mouse, 12 minutes, 50 mg/kg) was 1.2234 and 1.098 and 0.3601 and 0.9436 and 0.9025 and 0.6956 and 0.2677 and 0.09176 and 0.3627. The “normalize cAMP, diluted” value (epididymal mouse sperm [3]; Fig. 3c replicates, 50 mg/kg i.p., 100-fold dilution into inhibitor-free media, capacitating relative to non-capacitated, 50 mg/kg) was 0.9454 and 0.4612 and 0.4886 and 0.7809 and 1.256 and 0.4688 and 0.8437 and 0.776 and 0.4914 and 0.7724 and 0.3623, the “normalize cAMP, non-diluted” value (epididymal mouse sperm [3]; Fig. 3c replicates, 50 mg/kg i.p., capacitating relative to non-capacitated sperm of same mouse, 12 minutes, 50 mg/kg) was 0.1221 and 0.9832 and 1.008 and 0.7764 and 0.7982 and 0.2443 and 0.1415 and 0.1173 and 0.5249 and 1.087 and 1.4 and the “capacitation-induced pY pattern” value (epididymal mouse sperm [4]; diluted 100 fold) was “remained blocked”. The “capacitation-induced pY pattern” value (epididymal mouse sperm [4]; swim out sperm mixed with equal volume capacitation media) was “blocked”.

— publication PMC9929232, “On-demand male contraception via acute inhibition of soluble adenylyl cyclase” (Nature Communications, 2023)
